Active and inactive are the calls of the source. The calls are words filed in the database; no cut-off is given here.

This is an account of results in ChEMBL document CHEMBL3045948, “Design, synthesis, and potential CNS activity of some new bioactive 1-(4-substituted-phenyl)-3-(4-oxo-2-methyl-4H-quinazolin-3-yl)-urea” (Med Chem Res, 2011).

Data set [1] has as its system Mus musculus. Description: Anticonvulsant activity in ip dosed Mus musculus (mouse) assessed as protection against subcutaneous pentyleneterazole-induced seizure measured after 4 hr. The class given is functional. As to conditions: read-out: MED.
The next data set concerns Rattus norvegicus. Description: CNS depressant activity in Rattus norvegicus Wistar (rat) assessed as immobility time at 100 mg/kg, ip measured after 60 min by forced swim test (reference value: 45.6 +/- 19.45 to 180.97 +/- 14.15 sec). The class given is functional. As to conditions: route intraperitoneal.
Data set [2] has as its system Mus musculus. The data set is described as follows: Anticonvulsant activity in ip dosed Mus musculus (mouse) assessed as protection against maximal electroshock-induced seizure measured after 0.5 hr. The class given is functional. As to conditions: read-out: MED. (In general: Protection in the maximal electroshock model is a classic sign of anticonvulsant action.)
Data set [3] concerns Mus musculus. Description: (§1) Neurotoxicity in ip dosed Mus musculus (mouse) after 4 hr by rotorod test. The class given is toxicity, organism-based. The settings on record: in vivo, 4 h.
The subject of data set [4] is Mus musculus. The data set is described as follows: Anticonvulsant activity in ip dosed Mus musculus (mouse) assessed as protection against subcutaneous pentyleneterazole-induced seizure measured after 0.5 hr. As to conditions: read-out: MED. The class given is functional.
The subject of data set [5] is Mus musculus. The data set is described as follows: Anticonvulsant activity in ip dosed Mus musculus (mouse) assessed as protection against maximal electroshock-induced seizure measured after 4 hr. The class given is functional. The settings on record: read-out: MED.
Data set [6] relates to Mus musculus. The data set is described as follows: (§2) Neurotoxicity in ip dosed Mus musculus (mouse) after 0.5 hr by rotorod test. As to conditions: in vivo, 0.5 h. The class given is toxicity, organism-based. For orientation: In the rotarod test animals must keep their balance on a rotating rod.
Data set [7] concerns Mus musculus. The data set is described as follows: Anticonvulsant activity in Mus musculus (mouse) assessed as protection against maximal electroshock-induced seizure at 300 mg/kg, ip measured after 4 hr. The class given is functional, organism-based. Set-up: dose 300 mg/kg.
Data set [8] relates to Mus musculus. Description: Anticonvulsant activity in Mus musculus (mouse) assessed as protection against subcutaneous pentyleneterazole-induced seizure at 300 mg/kg, ip measured after 4 hr. The class given is functional, organism-based. The arrangement: dose 300 mg/kg.
Data set [9] has as its system Mus musculus. Description: Anticonvulsant activity in Mus musculus (mouse) assessed as protection against maximal electroshock-induced seizure at 300 mg/kg, ip measured after 0.5 hr. The class given is functional, organism-based. Set-up: dose 300 mg/kg.
The test system of data set [10] is Mus musculus. The data set is described as follows: Anticonvulsant activity in Mus musculus (mouse) assessed as protection against subcutaneous pentyleneterazole-induced seizure at 300 mg/kg, ip measured after 0.5 hr. The class given is functional, organism-based. The arrangement: dose 300 mg/kg.
A short description of data set [11]: as §1. The class given is toxicity, organism-based. As to conditions: in vivo.
Data set [12] relates to Mus musculus. The data set is described as follows: Sedative-hypnotic activity in Mus musculus (mouse) assessed as inhibition of locomotory activity at 100 mg/kg, ip measured after 1 hr by actophotometer test. The class given is functional. As to conditions: route intraperitoneal.
Data set [13] can be described thus: as §2. The class given is toxicity, organism-based. As to conditions: in vivo.

Regarding `NC(=O)N1c2ccccc2C=Cc2ccccc21` [CARBAMAZEPINE], the minimal effective dose was found to be 300 mg/kg with Mus musculus [1], 30 mg/kg in the data set on Mus musculus [2], 100 mg/kg with Mus musculus [4] and 100 mg/kg in the data set on Mus musculus [5]. The Time in the data set with Rattus norvegicus was found to be 240.3 s. Moreover, the MTC with Mus musculus [3] was 300 mg/kg; in the data set on Mus musculus [6], 100 mg/kg.

Take `Cc1nc2ccccc2c(=O)n1NC(=O)Nc1ccccc1`: the result in the data set on Mus musculus [7], with Mus musculus [8], in the data set with Mus musculus [9] and in the data set with Mus musculus [10] was inactive. Moreover, in the data set with Rattus norvegicus, the Time is on record as 130.56 s. In data set [11], this molecule registered an MTD at 4 h of 300 mg/kg. This molecule gave an MTC with Mus musculus [6] of 300 mg/kg. The inhibition in vivo at 100 mg/kg in the data set with Mus musculus [12] was found to be 50%.

Regarding `Cc1ccccc1NC(=O)Nn1c(C)nc2ccccc2c1=O`, the outcome with Mus musculus [7], in the data set with Mus musculus [8], in the data set on Mus musculus [9] and in the data set on Mus musculus [10] was inactive. Also, the Time in the data set with Rattus norvegicus came to 226.29 s. The MTD at 4 h in data set [11] came to 300 mg/kg. This molecule came in with an MTD at 0.5 h in data set [13] of 300 mg/kg. Besides, the inhibition in vivo at 100 mg/kg in the data set with Mus musculus [12] is 51%.

As for `COc1ccc(NC(=O)Nn2c(C)nc3ccccc3c2=O)cc1`, the outcome in the data set on Mus musculus [7], with Mus musculus [8], in the data set on Mus musculus [9] and in the data set on Mus musculus [10] was inactive. Besides, in the data set with Rattus norvegicus, the Time came out at 202.29 s. The molecule further registered an MTD at 4 h in [11] of 300 mg/kg. In [13], this molecule had an MTD at 0.5 h of 300 mg/kg. Further, the inhibition in vivo at 100 mg/kg with Mus musculus [12] stood at 42%.

Take `Cc1nc2ccccc2c(=O)n1NC(=O)Nc1ccc(I)cc1`: the result with Mus musculus [7], with Mus musculus [8], in the data set with Mus musculus [9] and with Mus musculus [10] was inactive. Moreover, the Time in the data set on Rattus norvegicus amounted to 194.05 s. In data set [11], the MTD at 4 h worked out at 300 mg/kg. This molecule showed an MTD at 0.5 h in [13] of 300 mg/kg. In the data set with Mus musculus [12], the inhibition in vivo at 100 mg/kg was determined as 53%.

Consider `CCc1ccc(NC(=O)Nn2c(C)nc3ccccc3c2=O)cc1`, for which the outcome in the data set with Mus musculus [8] was inactive. Besides, the Time with Rattus norvegicus stood at 208.29 s. In addition, the minimal effective dose in the data set on Mus musculus [2], in the data set with Mus musculus [4] and with Mus musculus [5] was 300 mg/kg throughout. In data set [11], the MTD at 4 h was 300 mg/kg. In addition, the MTD at 0.5 h in data set [13] worked out at 300 mg/kg. Besides, the inhibition in vivo at 100 mg/kg in the data set with Mus musculus [12] is 53%.

Regarding `Cc1cccc(NC(=O)Nn2c(C)nc3ccccc3c2=O)c1`, the outcome with Mus musculus [7], in the data set on Mus musculus [8], in the data set with Mus musculus [9] and in the data set on Mus musculus [10] was inactive. Besides, the Time in the data set with Rattus norvegicus was found to be 218.29 s. The same molecule returned an MTD at 4 h in data set [11] of 300 mg/kg. This molecule also had an MTD at 0.5 h in data set [13] of 300 mg/kg. For the same molecule, the inhibition in vivo at 100 mg/kg with Mus musculus [12] was found to be 51%.

In the case of `Cc1nc2ccccc2c(=O)n1NC(=O)Nc1ccc(Br)cc1`, the result in the data set on Mus musculus [7] and in the data set on Mus musculus [8] was inactive. Besides, the Time in the data set with Rattus norvegicus is given as 70.63 s. In addition, the minimal effective dose with Mus musculus [2] and with Mus musculus [4] was 300 mg/kg each time. In data set [11], the MTD at 4 h is 300 mg/kg. This molecule registered an MTC with Mus musculus [6] of 300 mg/kg. In the data set on Mus musculus [12], the inhibition in vivo at 100 mg/kg came to 51%.

`CCCC(CCC)C(=O)[O-].[Na+]` [VALPROATE SODIUM]: the outcome with Mus musculus [7], in the data set on Mus musculus [8] and in the data set with Mus musculus [9] was inactive. The molecule further had an MTD at 4 h in data set [11] of 300 mg/kg. The minimal effective dose with Mus musculus [4] was 300 mg/kg. In addition, the MTD at 0.5 h in data set [13] worked out at 300 mg/kg.

Consider `CCOc1ccc(NC(=O)Nn2c(C)nc3ccccc3c2=O)cc1`, for which the result in the data set with Mus musculus [7], in the data set on Mus musculus [8], with Mus musculus [9] and in the data set on Mus musculus [10] was inactive. Besides, the Time with Rattus norvegicus is recorded as 198.29 s. The MTC in the data set on Mus musculus [3] and in the data set with Mus musculus [6] was 300 mg/kg throughout. Also, the inhibition in vivo at 100 mg/kg in the data set on Mus musculus [12] amounted to 45%.

For the molecule `CCC1(C)CC(=O)NC1=O` (stereo unspecified) [ETHOSUXIMIDE], the result with Mus musculus [7], with Mus musculus [8] and in the data set on Mus musculus [9] was inactive. The minimal effective dose in the data set on Mus musculus [4] came out at 300 mg/kg.

`Cc1nc2ccccc2c(=O)n1NC(=O)Nc1ccc([N+](=O)[O-])cc1`: the outcome in the data set on Mus musculus [7], with Mus musculus [8], in the data set with Mus musculus [9] and in the data set on Mus musculus [10] was inactive. Besides, the Time in the data set with Rattus norvegicus came out at 190.29 s. Also, the MTD at 4 h in [11] amounted to 300 mg/kg. Further, the MTD at 0.5 h in [13] was 300 mg/kg. In addition, the inhibition in vivo at 100 mg/kg in the data set on Mus musculus [12] stood at 40%.

For `Cc1nc2ccccc2c(=O)n1NC(=O)Nc1ccc(F)cc1`, the outcome in the data set on Mus musculus [7], in the data set with Mus musculus [8], in the data set on Mus musculus [9] and with Mus musculus [10] was inactive. In the data set on Rattus norvegicus, the Time turned out to be 188.16 s. Further, the MTD at 4 h in data set [11] was 300 mg/kg. The same molecule returned an MTD at 0.5 h in data set [13] of 300 mg/kg. The inhibition in vivo at 100 mg/kg in the data set with Mus musculus [12] turned out to be 45%.

On to `CCC1(c2ccccc2)C(=O)NC(=O)NC1=O` [PHENOBARBITAL], for which the minimal effective dose is 300 mg/kg with Mus musculus [1], 100 mg/kg in the data set on Mus musculus [2], 30 mg/kg in the data set on Mus musculus [4] and 30 mg/kg in the data set on Mus musculus [5]. The MTC was found to be 300 mg/kg with Mus musculus [3] and 100 mg/kg in the data set on Mus musculus [6].

Turning to `Cc1ccc(NC(=O)Nn2c(C)nc3ccccc3c2=O)cc1`, the outcome with Mus musculus [7], with Mus musculus [8], in the data set with Mus musculus [9] and in the data set on Mus musculus [10] was inactive. Besides, the Time with Rattus norvegicus turned out to be 210.29 s. In [11], this molecule displayed an MTD at 4 h of 300 mg/kg. For the same molecule, the MTD at 0.5 h in [13] was determined as 300 mg/kg. In addition, the inhibition in vivo at 100 mg/kg in the data set on Mus musculus [12] was determined as 52%.

With `Cc1nc2ccccc2c(=O)n1NC(=O)Nc1ccc(Cl)cc1`, the outcome in the data set on Mus musculus [7] and with Mus musculus [8] was inactive. Moreover, the Time with Rattus norvegicus was 204.7 s. Besides, the minimal effective dose in the data set with Mus musculus [2] and with Mus musculus [4] was 300 mg/kg throughout. The MTC in the data set with Mus musculus [3] and in the data set on Mus musculus [6] was 300 mg/kg in each case. Further, the inhibition in vivo at 100 mg/kg in the data set with Mus musculus [12] was 48%.

Take `O=C1NC(=O)C(c2ccccc2)(c2ccccc2)N1` [PHENYTOIN]: the outcome with Mus musculus [8] and in the data set on Mus musculus [10] was inactive. Further, the minimal effective dose in the data set on Mus musculus [2] and in the data set with Mus musculus [5] was 30 mg/kg each time. The MTC with Mus musculus [3] and with Mus musculus [6] was 100 mg/kg each time. Also, in the data set with Mus musculus [12], the inhibition in vivo at 100 mg/kg was 70%.

The term inhibition in vivo denotes the relative decrease from the control value, in per cent.
